One compound from publication PMC11067034 (Proceedings of the National Academy of Sciences of the …, 2024) can be followed below.

This experiment addresses T1, human CTF18-RFC (ATPγS sites in CTF18/A, RFC2/B, RFC5/C, RFC4/D) (Homo sapiens, UniProt P35249+P35250+P40937+Q8WVB6).
T1 construct: gene CHTF18; heptameric CTF18-RFC2-5-DCC1-CTF8 from baculovirus/insect cells, intact complex; DCC1 and CTF8 invisible in maps; mixed with human PCNA (from E. coli BL21) and two-tailed DNA; with Replication factor C subunit 3; Sister chromatid cohesion protein DCC1; Chromosome transmission fidelity protein 8 homolog; Proliferating cell nuclear antigen
As to the kind of experiment: cryo-EM structure. In kind it is binding. The note with it: Mg2+-coordinated; ATPase sites of CTF18, RFC2, RFC5 and RFC4 (arginine fingers from adjacent subunits); 0.5 mM ATPγS, PCNA and DNA, 1 mM Mg acetate, pH 7.5, room temperature.

On to `Nc1ncnc2c1ncn2[C@@H]1O[C@H](COP(=O)(O)OP(=O)(O)OP(O)(O)=S)[C@@H](O)[C@H]1O` [ATPγS], for which the cryo-EM structure result was “We identified four ATPγS molecules in the AAA+ nucleotide binding pockets of subunits CTF18/A, RFC2/B, RFC5/C”.
